# From patent US11434241B2, “Pyrimidine derivatives for prevention and treatment of bacterial infections” (UNIVERSITE DE LIEGE, priority 2018, dated 2022)
# Like-named read-outs stand apart in the source and are kept apart here.
# Tests used:
# [1] = system: Staphylococcus epidermidis (ATCC 35984, also known as RP62A or MRSE); assay: MIC determination on S. epidermidis (EUCAST, OD600 after overnight growth in MHB); type: cell-based; conditions: for MIC: Staphylococcus epidermidis
# Experimental: The Minimal Inhibitory Concentration (MIC) of molecules 2329, 2348, 2412, 2452 and 2461 was determined on Staphylococcus epidermidis (ATCC 35984, also known as RP62A) according to EUCAST (European Committee on Antimicrobial Susceptibility Testing) recommendations.
# Briefly, a single colony grown on a Tryptic Soy Agar (TSA) plate was resuspended and cultured in Tryptic Soy Broth (TSB) overnight (O/N) in aerobic conditions (37° C. with 220 rpm shaking), next day a 1:50 inoculum in Mueller-Hinton broth (MHB) was incubated in aerobic conditions for 3 hr and an inoculum of 1:100 dilution, corresponding to 3×10^5 CFU/ml, was incubated in presence or absence of different concentrations of the molecules in 1% DMSO (vehicle). After O/N growth the OD of each culture was measured at 600 nm in a spectrophotometer (OD600). The MIC represents the concentration at which there is no visible growth of bacteria, i.e. ΔOD at 600 nm equal to zero (blank is the medium alone).
# The Minimal Inhibitory Concentration (MIC) of pyrazolopyrimidine molecules 2539, 2544, 2666,2676, 2693, 2783, 2784 and 2782 and of purine molecules 2498, 2511, 2525, 2527, 2833, and 2840 was determined on S. epidermidis (ATCC 35984, also known as RP62A or MRSE) according to EUCAST (European Committee on Antimicrobial Susceptibility Testing) recommendations.
# Briefly, a single colony grown on an agar plate was resuspended and cultured in Triptic Soy Broth (TSB) medium overnight (O/N) in aerobic conditions (37° C. with 220 rpm shaking), next day a 1:50 inoculum in Mueller-Hinton broth (MHB) was incubated in aerobic conditions for 3 hr (OD=0.08-0.1) and an inoculum of 1:300 dilution, corresponding to 3×10^5 CFU/ml, was incubated in presence or absence of different concentrations of each of the molecules in 1% DMSO (vehicle). After O/N growth the OD of each culture was measured at 600 nm (600) in a spectrophotometer (Victor 3-Perkin Elmer). The MIC represents the concentration at which there is no visible growth of bacteria, i.e. ΔOD at 600 nm equal to zero (where ΔOD is the difference between the OD with the molecule and the OD of the blank, the medium alone).
# (§1) Molecule 36z has been tested for its potential antibacterial activity by determining its minimal inhibitory concentration (MIC) according to protocols recommended by EUCAST to assess the efficacy of antibiotics against bacterial strains. In brief MIC in MRSA (ATCC BAA-1556) or in Xen29 (Perkin Elmer-ATCC 12600) for 36z (molecule 25 in WO2009/034386) was determined by culturing a single colony of MRSA or Xen29 in brain heart infusion (BHI) broth overnight (O/N) in aerobic conditions (37° C. with 220 rpm shaking), while MIC for MRSE (ATCC 35984) was determined by culturing MRSE in TSB O/N. Next day a 1:100 inoculum in Mueller-Hinton broth (MHB) is incubated in aerobic conditions for 3 hr (OD=0.08-0.1) and an inoculum of 1:300 dilution, corresponding to 3×10^5 CFU/ml, is incubated in presence or absence of different concentrations of the tested molecules in 1% DMSO. After O/N growth the OD of each culture was measured at 600 nm (OD600) in a spectrophotometer (Victor 3-Perkin Elmer). The MIC represents the concentration at which there is no visible growth of bacteria, i.e. ΔOD at 600 nm equal to zero (blank is the medium alone). No antibacterial activity was found against MRSA (ATCC BAA-1556), Xen29 (Perkin Elmer-ATCC 12600 or MRSE (ATCC 35984) strains when the molecule was used at concentrations up to 200 μM.
# [2] = system: methicillin-resistant S. aureus (MRSA) ATCC BAA-1556; assay: MIC determination on methicillin-resistant S. aureus; type: cell-based, Staphylococcus aureus; conditions: for antibacterial activity against MRSA (in words): MHB medium; for MIC: Staphylococcus aureus
# Experimental: (§2) Further experiments are conducted using different strains of S. aureus, as clinically relevant Gram-positive bacterial strains: S. aureus ATCC 25904, methicillin-resistant S. aureus (MRSA) ATCC BAA-1556, Glycopeptide intermediate-resistant (GISA) S. aureus Mu-50 (ATCC 700695) in order to determine the Minimal Inhibitory Concentration (MIC) which is the minimal concentration required to prevent bacterial growth. The bioluminescent strain S. aureus Xen29 (ATCC 12600) was also used. This strain is derived from the parental strain S. aureus ATCC 12600, a pleural fluid isolate, which is also designated as NCTC8532.
# (§3) A single colony selected from the different strains of S. aureus is resuspended and cultured in brain heart infusion (BHI) broth overnight (O/N) in aerobic conditions (37° C. with 220 rpm shaking), next day a 1:100 inoculum in Mueller-Hinton broth (MHB) is incubated in aerobic conditions for 3 hr (=OD0.08-0.1) and an inoculum of 1:300 dilution, corresponding to 3×10^5 CFU/ml, is incubated in presence or absence of different concentrations of the tested molecules in 1% DMSO. After O/N growth the OD of each culture was measured at 600 nm (OD600) in a spectrophotometer (Victor 3-Perkin Elmer). The MIC represents the concentration at which there is no visible growth of bacteria, i.e. ΔOD at 600 nm equal to zero (blank is the medium alone). […] The MIC of molecule 2329 against Glycopeptide intermediate-resistant (GISA) S. aureus Mu-50 (ATCC 700695) is in between 25 and 30 μM, while it is above 50 μM for molecules 2348, 2412, and 2452.
# (§4) Further experiments are conducted using different strains of S. aureus, as clinically relevant Gram-positive bacterial strains: methicillin-resistant S. aureus (MRSA) ATCC BAA-1556 and S. aureus Xen29 (Perkin Elmer ATCC 12600).
# (§5) To determine the MIC of the above mentioned molecules in MRSA or in Xen29, a single colony of MRSA or Xen29 is resuspended and cultured in brain heart infusion (BHI) broth overnight (O/N) in aerobic conditions (37° C. with 220 rpm shaking), next day a 1:100 inoculum in Mueller-Hinton broth (MHB) is incubated in aerobic conditions for 3 hr (OD=0.08-0.1) and an inoculum of 1:300 dilution, corresponding to 3×10^5 CFU/ml, is incubated in presence or absence of different concentrations of the tested molecules in 1% DMSO. After O/N growth the OD of each culture was measured at 600 nm (OD600) in a spectrophotometer (Victor 3-Perkin Elmer). The MIC represents the concentration at which there is no visible growth of bacteria, i.e. ΔOD at 600 nm equal to zero (blank is the medium alone).
# as §1
# MRSE = assay: Minimal Bactericidal Concentration (MBC) for MRSE; type: cell-based, Staphylococcus epidermidis
# Experimental: We have determined the Minimal Bactericidal Concentration (MBC) of the pyrazolopyrimidine molecule 2666 for the MRSA strain and the MBC of the purine molecules 2329 and 2833 for MRSA and the MRSE strain respectively.
# To determine the MBC, bacteria were grown as per MIC determination in presence of the pyrazolopyrimidine molecule 2666 for MRSA or in presence of the purine molecule 2833 for MRSE or 2329 for MRSA. At 24 hours bacteria were plated on TSB agar plates by the broth microdilution method, and colonies formed on the plates were counted next day.
# The MBC represents the lowest concentration at which 99.9% bacteria of the initial inoculum are killed over 24 hours.
# [3] = system: S. aureus Xen29 (ATCC 12600); assay: MIC determination on bioluminescent S. aureus Xen29; type: cell-based, Staphylococcus aureus; conditions: for MIC: Staphylococcus aureus
# Experimental: as §2, §3, §4, §5, §1
# [4] = biological target: Murl isozyme from E. faecalis (Enterococcus faecalis, UniProt Q836J0); conditions: read-out: IC50 Murl isozyme from E. faecalis; Table 9 of WO2009/034386; cited from earlier work
# [5] = system: Murl isozyme from E. faecium; conditions: Table 9 of WO2009/034386; cited from earlier work
# S. aureus ATCC 25904 = assay: MIC determination on S. aureus ATCC 25904; type: cell-based; conditions: Staphylococcus aureus, ATCC25904, read-out: MIC S. aureus ATCC25904
# Experimental: as §2, §3
# [6] = system: vancomycin-resistant (VRE) E. faecalis ATCC BAA-2365; assay: MIC determination on vancomycin-resistant E. faecalis; type: cell-based, Enterococcus faecalis; conditions: Mueller-Hinton broth (MHB)
# Experimental: Further experiments were conducted using the clinically relevant Gram-positive bacterial strain of vancomycin-resistant (VRE) E. faecalis ATCC BAA-2365, in order to determine the Minimal Inhibitory Concentration (MIC) which is the minimal concentration required to prevent bacterial growth.
# A single colony selected from E. faecalis VRE is resuspended and cultured in the brain heart infusion (BHI) broth overnight (O/N) in aerobic conditions (37° C. with 220 rpm shaking), next day a 1:100 inoculum in Mueller-Hinton broth (MHB) is incubated in aerobic conditions for 3 hr (OD=0.08-0.1) and an inoculum of 1:300 dilution, corresponding to 3×10^5 CFU/ml, is incubated in presence or absence of different concentrations of the tested molecules in 1% DMSO. After O/N growth the OD of each culture is measured at 600 nm (OD600) in a spectrophotometer (Victor 3-Perkin Elmer). The MIC represents the concentration at which there is no visible growth of bacteria, i.e. ΔOD at 600 nm equal to zero (blank is the medium alone).
# [7] = MHB medium, tested up to 100 μM, read-out: MIC MRSE
# [8] = read-out: MIC MRSE (comparison molecules of WO2009/034386)
# [9] = ATCC12600, read-out: MIC Xen29 (comparison molecules of WO2009/034386)
# [10] = read-out: MIC MRSA (comparison molecules of WO2009/034386)
# Murl isozyme from E. faecalis, sequence (Q836J0 whole entry): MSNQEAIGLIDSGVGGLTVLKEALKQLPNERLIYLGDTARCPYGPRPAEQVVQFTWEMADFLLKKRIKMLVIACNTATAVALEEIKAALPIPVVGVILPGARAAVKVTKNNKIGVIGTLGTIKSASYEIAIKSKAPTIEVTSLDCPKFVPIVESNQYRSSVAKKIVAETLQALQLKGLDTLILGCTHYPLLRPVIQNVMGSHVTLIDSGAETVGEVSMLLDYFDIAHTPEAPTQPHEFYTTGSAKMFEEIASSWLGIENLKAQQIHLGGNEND
SMILES,antibacterial activity / inhibition of MRSE growth (in words) ([1]; MHB medium),"MIC [1, 7]",antibacterial activity against MRSA (in words) [2],MIC ([2]; read-out: MIC MRSA),"MIC [1, 8]","MIC [3, 9]","MIC [2, 10]",IC50 [5],further results
"CCCCSc1nc(N[C@@H]2C[C@H]2c2ccc(F)c(F)c2)c2ncn(C)c2n1 [Molecule 2833, 2-(butylthio)-N-((1R,2S)-2-(3,4-difluorophenyl)cyclopropyl)-9-methyl-9H-purin-6-amine]",able to inhibit MRSE growth,30 µM,active,50 µM,,,,,"MBC relative to MIC, MRSE (MRSE): around 2 times; MBC (MRSE; Staphylococcus epidermidis, MRSE, 99.9% of initial inoculum killed over 24 hours): 50 µM"
"CCCCSc1nc(N)c2ncn(Cc3c(F)ccc(Cl)c3F)c2n1 [Molecule 36z, 2-(Butylthio)-9-(3-chloro-2,6-difluorobenzyl)-9H-purin-6-amine, reference compound]",,,,,> 200 µM,> 200 µM,> 200 µM,5 µM,IC50 [4]: 2 µM
"CCCCOc1nc(NCc2cccnc2)c2ncn(Cc3c(F)ccc(Cl)c3F)c2n1 [37z″, 2-Butoxy-9-(3-chloro-2,6-difluorobenzyl)-N-(pyridin-3-ylmethyl)-9H-purin-6-amine, reference compound]",,,,,> 200 µM,> 200 µM,> 200 µM,5 µM,
"CCCSc1nc(N[C@@H]2C[C@H]2c2ccc(F)c(F)c2)c2ncn([C@@H]3C[C@H](O)[C@@H](O)[C@H]3O)c2n1 [Molecule 2461, (1S,2R,3S,4R)-4-(6-(((1R,2S)-2-(3,4-difluorophenyl)cyclopropyl)amino)-2-(propylthio)-9H-purin-9-yl)cyclopentane-1,2,3-triol]",,,,,,,,,"MIC ([1]; Mueller-Hinton broth (MHB), read-out: MIC S. epidermidis RP62): 20 µM; MIC (S. aureus ATCC 25904): 20 to 25 µM; MIC ([3]; ATCC12600, read-out: MIC S. aureus Xen29): 20 to 25 µM; MIC ([2]; read-out: MIC S. aureus MRSA): 25 µM; MIC [6]: 25 µM"
"CSc1nc(N[C@@H]2C[C@H]2c2ccc(F)c(F)c2)c2cnn(C)c2n1 [Molecule 2539, N-((1R,2S)-2-(3,4-difluorophenyl)cyclopropyl)-1-methyl-6-(methylthio)-1H-pyrazolo[3,4-d]pyrimidin-4-amine]",able to inhibit MRSE growth,50 µM,active,25 µM,,,,,"antibacterial activity / inhibition of Xen29 growth (in words) ([3]; MHB medium): able to inhibit; MIC ([3]; ATCC12600, read-out: MIC Xen29): 30 µM"
